Patent US8039453B2, “Vinca derivatives” (priority 2006, dated 2011)
Like-named read-outs stand apart in the source and are kept apart here.

Test system: HeLa S-3 human cervical carcinoma cell line
Test: HeLa GI50 determination (SRB growth inhibition)
Assay type: cell-based
Conditions: HeLa S3, 48 h, read-out: HeLa Cells GI50
Procedure: A. HeLa GI50 Determinations
Growth inhibition (GI50) values were measured on the human cervical carcinoma cell line, HeLa S-3, which were selected for growth on plastic. The HeLa cell assay was based on the description of Skehan et al., J. Natl. Cancer Inst., 82:1107-12 (1990), which is hereby incorporated by reference in its entirety. HeLa cells were plated at 2×10^4 cells/well in 96 well plates. One day later, a control plate was fixed by the addition of TCA to 5%. After five rinses with tap water, the plate was air-dried and stored at 4° C. Test compounds were added to the remaining plates at 10-fold dilutions. Two days later, all plates were fixed as described above. Cells were then stained by the addition of 100 μL per well of 0.4% sulforhodamine B (SRB) in 1% acetic acid for 30 min at 4° C. Wells were then quickly rinsed 5× with 1% acetic acid and allowed to air dry. The SRB was then solubilized by the addition of 100 μL per well of unbuffered 10 mM Tris base. Dye was quantified by measuring absorbance at 490 nm on a Molecular Devices microplate reader. Growth inhibition was calculated according to the following equation: GI=100×(T−T0)/(C−T0), where the optical density (OD) of the test well after 2 days of treatment was T, the OD of the wells in the control plate on day 0 was T0 and C was the OD of untreated wells. Plots of percent growth inhibition versus inhibitor concentration were used to determine the GI50.

[1] = HeLa S-3 cells, 2 days of treatment, sulforhodamine B staining

CCc1ccc2[nH]c3c(c2c1)CCN1CC(C(C)(F)F)C[C@@H](C1)C[C@]3(C(=O)OC)c1cc2c(cc1OC)N(C)[C@H]1[C@@](O)(C(=O)OC)[C@H](OC(C)=O)[C@]3(CC)C=CCN4CC[C@]21[C@@H]43 (stereo partly drawn) [Example 3, 12′-Ethyl-4′-deoxy-20′,20′-diflurovincaleukoblastine]
GI50 [1]: > 1000 nM

CC[C@]12C=CCN3CC[C@@]4(c5cc([C@@]6(C(=O)OC)C[C@H]7CC(C(C)(F)F)CN(CCc8c6[nH]c6ccc(-c9ccccc9)cc86)C7)c(OC)cc5N(C)[C@H]4[C@@](O)(C(=O)OC)[C@@H]1OC(C)=O)[C@@H]32 (stereo partly drawn) [Example 6, 12′-Phenyl-4′-deoxy-20′,20′-diflurovincaleukoblastine]
GI50: 23100 nM

CC[C@]12C=CCN3CC[C@@]4(c5cc([C@@]6(C(=O)OC)C[C@H]7CC(C(C)(F)F)CN(CCc8c6[nH]c6ccc(SC)cc86)C7)c(OC)cc5N(C)[C@H]4[C@@](O)(C(=O)OC)[C@@H]1OC(C)=O)[C@@H]32 (stereo partly drawn) [Example 12, 12′-(Methylsulfanyl)-4′-deoxy-20′,20′-diflurovincaleukoblastine]
GI50 [1]: 93 nM
